Experimental data from patent publication US11732256B2, “Multivalent glycopeptides that tightly bind to target proteins” (Brandeis University, priority 2013, dated 2023).

System: HIV broadly neutralizing antibody 2G12
Assay: Radioactive 2G12-glycopeptide binding assay with protein G magnetic beads (binding curve and KD determination)
Procedure: The sequences were obtained by cloning non-selected library DNA. […] FIG. 9B is an SDS-PAGE analysis of the click reaction of the non-selected peptides. Both peptides were transcribed and translated from PCR-amplified DNA in Pure System that contains 0.02 mg/mL T7 RNA polymerase and additional 1 mM each NTP. The peptides were labeled with 3H-histidine and the bands were visualized by fluorography.
For round 10 winners, 0.12-0.2 nM radioactive glycopeptides were incubated with 0, 0.25, 0.5, 1, 2, 4, 8, 16, 32 or 64 nM 2G12 in 40 μL of selection buffer at room temperature for 1 h. Then, the solution was added to 0.12 mg of pre-equilibrated Dynabeads Protein G and tumbled at room temperature for 30 min. The supernatant was removed and the beads were washed with 3×40 μL of selection buffer. The radioactivities of the supernatant and wash solutions were measured by liquid scintillation counting as unbound fractions. […] The beads were resuspended in 40 μL of selection buffer, heated at 70° C. for 30 min to elute the bound glycopeptides, chilled on ice for 5 min, and tumbled at room temperature for 10 min. The supernatant was removed, and the beads were washed with 40 μL of selection buffer and resuspended in 40 μL of selection buffer. The radioactivities of these solutions and suspensions were measured by liquid scintillation counting separately and the values were combined as apparent bound fractions. […] All experiments were done at least in triplicate. KDs were calculated as described in the footnote of Table 4 (below).

## CC[C@H](C)[C@H](NC(=O)[C@H](CCCNC(=N)N)NC(=O)[C@H](Cc1c[nH]cn1)NC(=O)[C@H](Cc1ccccc1)NC(=O)[C@H](CC(C)C)NC(=O)[C@H](C)NC(=O)[C@H](CC(C)C)NC(=O)[C@H](C)NC(=O)[C@H](Cc1ccc(O)cc1)NC(=O)[C@H](CCc1cn(C2CCC(OC3O[C@H](CO[C@H]4O[C@H](CO[C@H]5O[C@H](CO)[C@@H](O)[C@H](O)[C@@H]5O[C@H]5O[C@H](CO)[C@@H](O)[C@H](O)[C@@H]5O)[C@@H](O)[C@H](O[C@H]5O[C@H](CO)[C@@H](O)[C@H](O)[C@@H]5O[C@H]5O[C@H](CO)[C@@H](O)[C@H](O)[C@@H]5O)[C@@H]4O)[C@@H](O)[C@H](O[C@H]4O[C@H](CO)[C@@H](O)[C@H](O)[C@@H]4O[C@H]4O[C@H](CO)[C@@H](O)[C@H](O)[C@@H]4O[C@H]4O[C@H](CO)[C@@H](O)[C@H](O)[C@@H]4O)[C@@H]3O)CC2)nn1)NC(=O)[C@H](CC(=O)O)NC(=O)[C@@H](NC(=O)[C@@H](NC(=O)[C@H](CCC(N)=O)NC(=O)[C@H](CCc1cn(C2CCC(OC3O[C@H](CO[C@H]4O[C@H](CO[C@H]5O[C@H](CO)[C@@H](O)[C@H](O)[C@@H]5O[C@H]5O[C@H](CO)[C@@H](O)[C@H](O)[C@@H]5O)[C@@H](O)[C@H](O[C@H]5O[C@H](CO)[C@@H](O)[C@H](O)[C@@H]5O[C@H]5O[C@H](CO)[C@@H](O)[C@H](O)[C@@H]5O)[C@@H]4O)[C@@H](O)[C@H](O[C@H]4O[C@H](CO)[C@@H](O)[C@H](O)[C@@H]4O[C@H]4O[C@H](CO)[C@@H](O)[C@H](O)[C@@H]4O[C@H]4O[C@H](CO)[C@@H](O)[C@H](O)[C@@H]4O)[C@@H]3O)CC2)nn1)NC(=O)[C@H](CCCCN)NC(=O)[C@H](CC(C)C)NC(=O)[C@H](C)NC(=O)[C@H](C)NC(=O)[C@H](CCc1cn(C2CCC(OC3O[C@H](CO[C@H]4O[C@H](CO[C@H]5O[C@H](CO)[C@@H](O)[C@H](O)[C@@H]5O[C@H]5O[C@H](CO)[C@@H](O)[C@H](O)[C@@H]5O)[C@@H](O)[C@H](O[C@H]5O[C@H](CO)[C@@H](O)[C@H](O)[C@@H]5O[C@H]5O[C@H](CO)[C@@H](O)[C@H](O)[C@@H]5O)[C@@H]4O)[C@@H](O)[C@H](O[C@H]4O[C@H](CO)[C@@H](O)[C@H](O)[C@@H]4O[C@H]4O[C@H](CO)[C@@H](O)[C@H](O)[C@@H]4O[C@H]4O[C@H](CO)[C@@H](O)[C@H](O)[C@@H]4O)[C@@H]3O)CC2)nn1)NC(=O)[C@H](CCc1cn(C2CCC(OC3O[C@H](CO[C@H]4O[C@H](CO[C@H]5O[C@H](CO)[C@@H](O)[C@H](O)[C@@H]5O[C@H]5O[C@H](CO)[C@@H](O)[C@H](O)[C@@H]5O)[C@@H](O)[C@H](O[C@H]5O[C@H](CO)[C@@H](O)[C@H](O)[C@@H]5O[C@H]5O[C@H](CO)[C@@H](O)[C@H](O)[C@@H]5O)[C@@H]4O)[C@@H](O)[C@H](O[C@H]4O[C@H](CO)[C@@H](O)[C@H](O)[C@@H]4O[C@H]4O[C@H](CO)[C@@H](O)[C@H](O)[C@@H]4O[C@H]4O[C@H](CO)[C@@H](O)[C@H](O)[C@@H]4O)[C@@H]3O)CC2)nn1)NC=O)C(C)C)[C@@H](C)O)C(=O)N[C@@H](CC(C)C)C(=O)NCC(=O)N[C@@H](CO)C(=O)NCC(=O)N[C@@H](CO)C(=O)N[C@@H](CC(C)C)C(=O)NCC(=O)N[C@@H](Cc1c[nH]cn1)C(=O)N[C@@H](Cc1c[nH]cn1)C(=O)N[C@@H](Cc1c[nH]cn1)C(=O)N[C@@H](Cc1c[nH]cn1)C(=O)N[C@@H](Cc1c[nH]cn1)C(=O)N[C@@H](Cc1c[nH]cn1)C(=O)N[C@@H](CCCNC(=N)N)C(=O)N[C@@H](CC(=O)O)C(=O)N[C@@H](Cc1ccc(O)cc1)C(=O)N[C@@H](CCCCN)C(=O)N[C@@H](CC(=O)O)C(=O)N[C@@H](CC(=O)O)C(=O)N[C@@H](CC(=O)O)C(=O)N[C@@H](CC(=O)O)C(=O)N[C@@H](CCCCN)C(=O)O (some centres unmarked) [Clone 10F2-Δ11, XXAALKXQVTDXYALALFHRIL]
Table 6 mutants/truncations, radioactive binding assay
  Fmax [%]: 70%
Truncated clones
  2G12 binding after truncation: tight binding
